Experimental data published in patent US10054581B1, “Inhibitors of notch signaling pathway and use thereof in treatment of cancers” (Ecole Polytechnique Federale de Lausanne (EPFL), priority 2011, dated 2018).
“Also recorded” adds a separate entry of the source.

What was measured:
[1] = test system: Notch target genes Hes1, cMyc and Dtx1; NICD; assay: Notch target gene expression in human cancer cell lines (qRT-PCR, Western blot); type: cell-based
Protocol: Total RNA was extracted from cells using TRIzol® extraction kit (Invitrogen). Briefly, 1×10^6 cells were washed with ice-cold 1×PBS and lysed in 1 ml of TRIzol® solution for 5 minutes at room temperature to dissociate nucleoprotein complexes. Lysed cells were then treated with 200 μl of chloroform and shaked vigorously for 15-30 seconds and incubated at room temperature for 2-3 minutes. The samples were centrifuged at 14000 rpm using Eppendorf table top centrifuge for 10 minutes at 4° C. Following centrifugation, upper aqueous phase was transferred to new eppendorf tubes. […]
Total RNA extracted from the cell was used to synthesize cDNA by reverse transcription reaction. […] RNA concentration was measured using NanoDrop®ND-1000 spectrophotometer (Witec AG) and 500 ng of total RNA was mixed with a 10 mM mix of dNTPs and 100 ng of random primers. […]
Cells were lysed in RIPA buffer (50 mM Tris.Cl, pH 7.5, 150 mM NaCl, 1% nonidet P-40, 0.5% sodium deoxycholate and 0.1% SDS) for 30 minutes at 4° C. […] The protein concentration was determined by Bradford assay using spectrophotometer (Ultrospec 3000 pro). […]
For immunoblotting, membranes were blocked with 5% milk and incubated overnight with primary antibodies at 4° C. […] Signal was detected with Super Signal West chemiluminescent substrate (Thermo Scientific, catalog number 34077). […]

RPMI8402 = assay: Cell cycle analysis (Ki67 and Hoechst stain), RPMI8402; type: cell-based, human; conditions: 10 μM
Protocol: (§1) FIGS. 6A-6D show 6-(4-Tert-Butylphenoxy)Pyridin-3-Amine (I3) induces G0/G1 cell cycle arrest and apoptosis in human T cell acute lymphoblastic leukemia cell lines and human breast cancer cell line HCC1187. […] Percentage of Annexin V positive (apoptotic) cell population was measured using flow cytometry.
(§2) In addition to induction of apoptosis, the proliferative arrest observed in 6-(4-Tert-Butylphenoxy)Pyridin-3-Amine (I3) treated human leukemic cell lines and breast cancer cell line also appears to be due to cell cycle arrest in G0/G1 phase of the cell cycle. Leukemic cell lines (RPMI8402, KOPTK1 and TALL1) and breast cancer cell lines were treated with 6-(4-Tert-Butylphenoxy)Pyridin-3-Amine (I3) for 48 hours and cell cycle status was determined using Ki67 and Hoechst stain.

HCC1187 = assay: Cell cycle analysis (Ki67 and Hoechst stain), HCC1187; type: cell-based, human; conditions: 10 μM, 48 hours
Protocol: as §1, §2

RPMI 8402 leukemic cells = assay: RPMI 8402 xenotransplantation in NOD/SCID γc−/− mice; type: in vivo, human
Protocol: FIGS. 8A-8B show 6-(4-Tert-Butylphenoxy)Pyridin-3-Amine (I3) treatment increases latency of leukemia development in mice. […] On day 15, leukemic cells were established in the bone marrow. Mice were treated with oil or 6-(4-Tert-Butylphenoxy)Pyridin-3-Amine (I3) for every day. Mice were imaged on day 27 using Caliper IVIS (Xenogen) live imaging system. Red and blue colour indicates the intensity of luciferase signal and correlates with the number of leukemic cells. […] NOD/SCID γc^−/− mice were transplanted with 5×10^5 RPMI 8402 (luciferase expressing) cells. Leukemia development was followed using Caliper IVIS (Xenogen) live imaging system. […]
The human leukemic cell lines RPMI 8402 and HPB ALL were transduced with a lentivirus containing luciferase gene constitutively expressed downstream of a CMV promoter. […] Mice were monitored for tumor development using Caliper IVIS (Xenogen) live imaging system. […]
Similarly in a preliminary experiment, NOD/SCID γc^−/− mice were transplanted with 5×10^5 RPMI 8402 cells and treated with oil or 6-(4-Tert-Butylphenoxy)Pyridin-3-Amine (I3) following the establishment of the disease. […] Since these animals were treated with the chemical compound 6-(4-Tert-Butylphenoxy)Pyridin-3-Amine (I3) for 27 days, the intestinal tissue was analyzed to detect any toxicity in the gut.

CC(C)(C)c1ccc(Oc2ccc(N)cn2)cc1 [I3, 6-(4-Tert-Butylphenoxy)Pyridin-3-Amine]
NICD protein levels ([1]; RPMI 8402, HPB ALL, KOPTK1, 24 hours, Western blot): reduced levels of NICD | expression of Notch target genes Hes1, cMyc and Dtx1 (mRNA and protein) ([1]; RPMI 8402, HPBALL, KOPTK1 and PANC1, 24 hours): induced a statistically significant downregulation of Notch target genes; also recorded: inhibits Notch signalling and downregulates its target genes in human cancer cell lines; also recorded: downregulation of Notch target genes in human T-ALL cell lines | cell cycle status (RPMI8402; 48 hours): induces an arrest in the G0/G1 phase of the cell cycle | increase in cells arrested in G0/G1 phase of the cell cycle (RPMI8402; stated jointly for RPMI8402, KOPTK1 and TALL1): 20-30% | cell cycle status (HCC1187): induces an arrest in the G0/G1 phase of the cell cycle | leukemia development (luciferase live imaging) (RPMI 8402 leukemic cells; 5×10^5 cells, daily treatment for 27 days after establishment of disease, preliminary experiment): blocks RPMI 8402 leukemic cell growth in xenotransplantation assay | metastatic lesions in the liver (histology) (RPMI 8402 leukemic cells; daily treatment for 27 days): did not develop any metastatic lesions in the liver
